# Data as given in ChEMBL document CHEMBL1649168, “Susceptibility of human immunodeficiency virus type 1 to the maturation inhibitor bevirimat is modulated by baseline polymorphisms in Gag spacer peptide 1” (Antimicrob Agents Chemother, 2009).
# pIC50: −log10 of the molar value.
# What was measured:
# [1] = test system: Human immunodeficiency virus 1; experiment: Antiviral activity against HIV1 HXB2 harboring SP1 Q6H/T8N mutant gene relative to wild type; assay type: functional
# [2] = test system: Human immunodeficiency virus 1; experiment: Antiviral activity against HIV1 PA103 harboring SP1 mutant gene relative to wild type; assay type: functional
# [3] = test system: Human immunodeficiency virus 1; experiment: Antiviral activity against HIV1 NL4.3 harboring SP1 V7M mutant gene relative to wild type; assay type: functional
# [4] = test system: Human immunodeficiency virus 1; experiment: Antiviral activity against HIV1 PA109 harboring SP1 mutant gene relative to wild type; assay type: functional
# [5] = test system: Human immunodeficiency virus 1; experiment: Antiviral activity against HIV1 PA108 harboring SP1 mutant gene relative to wild type; assay type: functional
# [6] = test system: Human immunodeficiency virus 1; experiment: Antiviral activity against HIV1 NL4.3 harboring SP1 V7delta mutant gene relative to wild type; assay type: functional
# [7] = test system: Human immunodeficiency virus 1; experiment: Antiviral activity against HIV1 HXB2 harboring SP1 mutant gene relative to wild type; assay type: functional
# [8] = test system: Human immunodeficiency virus 1; experiment: Antiviral activity against HIV1 PA100 harboring SP1 mutant gene relative to wild type; assay type: functional
# [9] = test system: Human immunodeficiency virus 1; experiment: Antiviral activity against HIV1 HXB2 harboring SP1 T8N mutant gene relative to wild type; assay type: functional
# [10] = test system: Human immunodeficiency virus 1; experiment: Antiviral activity against HIV1 NL4.3 harboring SP1 L231M mutant gene relative to wild type; assay type: functional
# [11] = test system: Human immunodeficiency virus 1; experiment: Antiviral activity against HIV1 HXB2 harboring SP1 V7A/T8delta mutant gene relative to wild type; assay type: functional
# [12] = test system: Human immunodeficiency virus 1; experiment: Antiviral activity against HIV1 PA106 harboring SP1 mutant gene relative to wild type; assay type: functional
# [13] = test system: Human immunodeficiency virus 1; experiment: Antiviral activity against HIV1 PA111 harboring SP1 mutant gene relative to wild type; assay type: functional
# [14] = test system: Human immunodeficiency virus 1; experiment: Antiviral activity against HIV1 HXB2 harboring SP1 Q6H mutant gene relative to wild type; assay type: functional
# [15] = test system: Human immunodeficiency virus 1; experiment: Antiviral activity against HIV1 PA110 harboring SP1 mutant gene relative to wild type; assay type: functional
# [16] = test system: Human immunodeficiency virus 1; experiment: Antiviral activity against HIV1 HXB2 harboring SP1 T8delta mutant gene relative to wild type; assay type: functional
# [17] = test system: Human immunodeficiency virus 1; experiment: Antiviral activity against HIV1 PA115 harboring SP1 mutant gene relative to wild type; assay type: functional
# [18] = test system: Human immunodeficiency virus 1; experiment: Antiviral activity against HIV1 NL4.3 harboring SP1 Q6A mutant gene relative to wild type; assay type: functional
# [19] = test system: Human immunodeficiency virus 1; experiment: Antiviral activity against HIV1 NL4.3 harboring SP1 T8delta mutant gene relative to wild type; assay type: functional
# [20] = test system: Human immunodeficiency virus 1; experiment: Antiviral activity against HIV1 PA107 harboring SP1 mutant gene relative to wild type; assay type: functional
# [21] = test system: Human immunodeficiency virus 1; experiment: Antiviral activity against HIV1 HXB2 harboring SP1 Q6H /V7A/T8N mutant gene relative to wild type; assay type: functional
# [22] = test system: Human immunodeficiency virus 1; experiment: Antiviral activity against HIV1 PA119 harboring SP1 mutant gene relative to wild type; assay type: functional
# [23] = test system: Human immunodeficiency virus 1; experiment: Antiviral activity against HIV1 NL4.3 harboring SP1 Q6H mutant gene relative to wild type; assay type: functional
# [24] = test system: Human immunodeficiency virus 1; experiment: Antiviral activity against HIV1 PA101 harboring SP1 mutant gene relative to wild type; assay type: functional
# [25] = test system: Human immunodeficiency virus 1; experiment: Antiviral activity against HIV1 HXB2 harboring SP1 Q6H/V7A mutant gene relative to wild type; assay type: functional
# [26] = test system: Human immunodeficiency virus 1; experiment: Antiviral activity against HIV1 PA116 harboring SP1 mutant gene relative to wild type; assay type: functional
# [27] = test system: Human immunodeficiency virus 1; experiment: Antiviral activity against HIV1 PA118 harboring SP1 mutant gene relative to wild type; assay type: functional
# [28] = test system: Human immunodeficiency virus 1; experiment: Antiviral activity against HIV1 clinical isolates; assay type: functional, organism-based
# [29] = test system: Human immunodeficiency virus 1; experiment: Antiviral activity against HIV1 PA117 harboring SP1 mutant gene relative to wild type; assay type: functional
# [30] = test system: Human immunodeficiency virus 1; experiment: Antiviral activity against HIV1 NL4.3 harboring SP1 A1V mutant gene relative to wild type; assay type: functional
# [31] = test system: Human immunodeficiency virus 1; experiment: Antiviral activity against HIV1 PA104 harboring SP1 mutant gene relative to wild type; assay type: functional
# [32] = test system: Human immunodeficiency virus 1; experiment: Antiviral activity against HIV1 NL4.3 harboring SP1 mutant gene relative to wild type; assay type: functional
# [33] = test system: Human immunodeficiency virus 1; experiment: Antiviral activity against HIV1 PA102 harboring SP1 mutant gene relative to wild type; assay type: functional
# [34] = test system: Human immunodeficiency virus 1; experiment: Antiviral activity against HIV1 HXB2 harboring SP1 Q6H/T8delta mutant gene relative to wild type; assay type: functional
# [35] = test system: Human immunodeficiency virus 1; experiment: Antiviral activity against HIV1 PA105 harboring SP1 mutant gene relative to wild type; assay type: functional
# [36] = test system: Human immunodeficiency virus 1; experiment: Antiviral activity against HIV1 NL4.3 harboring SP1 T8A mutant gene relative to wild type; assay type: functional
# [37] = test system: Human immunodeficiency virus 1; experiment: Antiviral activity against HIV1 PA114 harboring SP1 mutant gene relative to wild type; assay type: functional
# [38] = test system: Human immunodeficiency virus 1; experiment: Antiviral activity against HIV1 HXB2 harboring SP1 V7M mutant gene relative to wild type; assay type: functional
# [39] = test system: Human immunodeficiency virus 1; experiment: Antiviral activity against HIV1 PA113 harboring SP1 mutant gene relative to wild type; assay type: functional
# [40] = test system: Human immunodeficiency virus 1; experiment: Antiviral activity against HIV1 HXB2 harboring SP1 V7A mutant gene relative to wild type; assay type: functional
# [41] = test system: Human immunodeficiency virus 1; experiment: Antiviral activity against HIV1 HXB2 harboring SP1 Q6H /V7A/T8delta mutant gene relative to wild type; assay type: functional
# [42] = test system: Human immunodeficiency virus 1; experiment: Antiviral activity against HIV1 HXB2 harboring SP1 V7A/T8N mutant gene relative to wild type; assay type: functional
# [43] = test system: Human immunodeficiency virus 1; experiment: Antiviral activity against HIV1 NL4.3 harboring SP1 V7A mutant gene relative to wild type; assay type: functional
# [44] = test system: Human immunodeficiency virus 1; experiment: Antiviral activity against HIV1 PA112 harboring SP1 mutant gene relative to wild type; assay type: functional
smiles,measurement,setting,value
C=C(C)[C@@H]1CC[C@]2(C(=O)O)CC[C@]3(C)[C@H](CC[C@@H]4[C@@]5(C)CC[C@H](OC(=O)CC(C)(C)C(=O)O)C(C)(C)[C@@H]5CC[C@]43C)[C@@H]12 [BEVIRIMAT],fold change (FC),[1],>122.5
same,fold change (FC),[2],>83.2
same,fold change (FC),[3],25.3
same,fold change (FC),[4],>125.4
same,fold change (FC),[5],>116.6
same,fold change (FC),[6],65.5
same,fold change (FC),[7],1.7
same,fold change (FC),[8],>125.4
same,fold change (FC),[9],52
same,fold change (FC),[10],37.6
same,fold change (FC),[11],>130.6
same,fold change (FC),[12],>119.5
same,fold change (FC),[13],>119.5
same,fold change (FC),[14],2.3
same,fold change (FC),[15],1.5
same,fold change (FC),[16],52.2
same,fold change (FC),[17],0.9
same,fold change (FC),[18],0.9
same,fold change (FC),[19],10.9
same,fold change (FC),[20],9.8
same,fold change (FC),[21],>132.3
same,fold change (FC),[22],>106.4
same,fold change (FC),[23],1.9
same,fold change (FC),[24],>76.1
same,fold change (FC),[25],>115.1
same,fold change (FC),[26],4.5
same,fold change (FC),[27],>113.7
same,pIC50,[28],8.00
same,fold change (FC),[29],1.9
same,fold change (FC),[30],>77.5
same,fold change (FC),[31],9.3
same,fold change (FC),[32],1.1
same,fold change (FC),[33],5.6
same,fold change (FC),[34],>111
same,fold change (FC),[35],>125.4
same,fold change (FC),[36],1.2
same,fold change (FC),[37],>106.1
same,fold change (FC),[38],>113
same,fold change (FC),[39],2.3
same,fold change (FC),[40],>151.4
same,fold change (FC),[41],>144.3
same,fold change (FC),[42],>157.2
same,fold change (FC),[43],45.8
same,fold change (FC),[44],1.9
